Test results published in ChEMBL document CHEMBL5143575, “Anti-Lea monoclonal antibody SPM 522 recognizes an extended Lea epitope” (Bioorg Med Chem, 2022).
pIC50: −log10 of the molar value.

Assays:
Mus musculus = species: Mus musculus; assay: Inhibition of (Le(a)Le(x))14-BSA conjugate binding to mouse Anti-Le(a) monoclonal antibody SPM 522 assessed as change in free energy preincubated with mAb for 1 hr followed by incubation with immobilized antigen BSA-conjugate for 3 hrs by competitive ELISA relative to control; settings: time 4.0 hrs
[1] = Inhibition of (Le(a)Le(x))14-BSA conjugate binding to mouse Anti-Le(a) monoclonal antibody SPM 522 preincubated with mAb for 1 hr followed by incubation with immobilized antigen BSA-conjugate for 3 hrs by competitive ELISA

SMILES | deltaG (Mus musculus) [kcal/mol] | pIC50 [1]
CO[C@@H]1O[C@H](CO)[C@@H](O[C@@H]2O[C@@H](C)[C@H](O)[C@@H](O)[C@H]2O)[C@H](O[C@@H]2O[C@H](CO)[C@H](O)[C@H](O)[C@H]2O)[C@H]1NC(C)=O | 0.5 | 2.15
CCCCCCO[C@@H]1O[C@H](CO)[C@@H](O[C@@H]2O[C@H](CO)[C@H](O)[C@H](O[C@@H]3O[C@H](CO)[C@@H](O)[C@H](O[C@@H]4O[C@H](CO)[C@H](O)[C@H](O)[C@H]4O)[C@H]3NC(C)=O)[C@H]2O)[C@H](O)[C@H]1NC(C)=O | 2.3 | 2.92
CCCCCCO[C@@H]1O[C@H](CO)[C@@H](O[C@@H]2O[C@H](CO)[C@H](O)[C@H](O[C@@H]3O[C@H](CO)[C@@H](O)[C@H](O[C@@H]4O[C@H](CO)[C@H](O)[C@H](O)[C@H]4O)[C@H]3NC(C)=O)[C@H]2O)[C@H](O[C@@H]2O[C@@H](C)[C@@H](O)[C@@H](O)[C@@H]2O)[C@H]1NC(C)=O (stereo in doubt) | 2.4 | 2.87
CO[C@@H]1O[C@H](CO)[C@@H](O[C@@H]2O[C@@H](C)[C@@H](O)[C@@H](O)[C@@H]2O)[C@H](O[C@@H]2O[C@H](CO)[C@H](O)[C@H](O)[C@H]2O)[C@H]1NC(C)=O | 0 | 2.51

Now those with a higher pIC50 [1], led by results:

deltaG (Mus musculus) [kcal/mol] | pIC50 [1] | SMILES
1.8 | 3.27 | CO[C@@H]1O[C@H](CO)[C@H](O)[C@H](O[C@@H]2O[C@H](CO)[C@@H](O)[C@H](O[C@@H]3O[C@H](CO)[C@H](O)[C@H](O)[C@H]3O)[C@H]2NC(C)=O)[C@H]1O
0 | 4.64 | CCCCCCO[C@@H]1O[C@H](CO)[C@@H](O[C@@H]2O[C@H](CO)[C@H](O)[C@H](O[C@@H]3O[C@H](CO)[C@@H](O[C@@H]4O[C@@H](C)[C@@H](O)[C@@H](O)[C@@H]4O)[C@H](O[C@@H]4O[C@H](CO)[C@H](O)[C@H](O)[C@H]4O)[C@H]3NC(C)=O)[C@H]2O)[C@H](O[C@@H]2O[C@@H](C)[C@@H](O)[C@@H](O)[C@@H]2O)[C@H]1NC(C)=O
